Measured values from ChEMBL document CHEMBL5260832, “Hepatoprotective natural triterpenoids” (Eur J Med Chem, 2018).

How the values were obtained:
Type in all cases: functional
Mus musculus = assay: Hepatoprotective activity against D-GaIN/CCl4 induced liver injury mouse model assessed as reduction in GPT level at 30 microg/kg, iv relative to control; design: scale not given: the % may be the effect or the level left; settings: dose 30 µg/kg
Hepatocyte = assay: Hepatoprotective activity against D-GaIN/LPS induced liver injury in rat hepatocytes assessed as cell death at 10 to 500 uM relative to control; settings: dose 10-500 µM
L02 = assay: Hepatoprotective activity against D-GaIN-induced toxicity in human HL7702 cells assessed as inhibition of cell survival rate at 10 uM relative to control

SMILES	Activity (Hepatocyte)	Activity (L02)	other results
CC(C)=CCC[C@](C)(O)[C@H]1CC[C@]2(C)[C@@H]1[C@H](O)C[C@@H]1[C@@]3(C)CC[C@H](O[C@@H]4O[C@H](CO)[C@@H](O)[C@H](O)[C@H]4O[C@@H]4O[C@H](CO)[C@@H](O)[C@H](O)[C@H]4O)C(C)(C)[C@@H]3CC[C@]12C			Activity (Mus musculus): 63%
C[C@@H]1O[C@@H](O[C@H]2[C@H](O[C@H]3[C@H](O[C@H]4CC[C@@]5(C)[C@@H](CC[C@]6(C)[C@@H]5CC=C5[C@@H]7CC(C)(C)C[C@@H](O[C@@H]8O[C@H](CO)[C@@H](O)[C@H](O)[C@H]8O)[C@]7(C)CC[C@]56C)[C@@]4(C)CO)O[C@H](C(=O)O)[C@@H](O)[C@@H]3O)O[C@H](CO)[C@H](O)[C@@H]2O)[C@H](O)[C@H](O)[C@H]1O	0%		
CC(C)=CCC[C@](C)(O[C@@H]1O[C@H](CO)[C@@H](O)[C@H](O)[C@H]1O)[C@H]1CC[C@]2(C)[C@@H]1[C@H](O)C[C@@H]1[C@@]3(C)CC[C@H](O)C(C)(C)[C@@H]3CC[C@]12C			Activity (Mus musculus): 76%
CCCCOC(=O)[C@H]1O[C@@H](O[C@H]2CC[C@]3(C)[C@H]4CC=C5[C@@H]6CC(C)(C)CC[C@]6(C(=O)O[C@@H]6O[C@H](CO)[C@@H](O)[C@H](O)[C@H]6O)CC[C@@]5(C)[C@]4(C)CC[C@H]3C2(C)C)[C@H](O[C@@H]2O[C@H](CO)[C@@H](O)[C@H](O)[C@H]2O)[C@@H](O)[C@@H]1O[C@@H]1OC[C@H](O)[C@H](O)[C@H]1O		48.3%	
C[C@@H]1O[C@@H](O[C@H]2[C@H](O[C@H]3[C@H](O[C@H]4CC[C@@]5(C)[C@@H](CC[C@]6(C)[C@@H]5CC=C5[C@@H]7CC(C)(C)[C@@H](O[C@@H]8OC[C@@H](O)[C@H](O)[C@H]8O)[C@@H](O)[C@]7(C)CC[C@]56C)[C@@]4(C)CO)O[C@H](C(=O)O)[C@@H](O)[C@@H]3O)O[C@H](CO)[C@H](O)[C@@H]2O)[C@H](O)[C@H](O)[C@H]1O	0%		
C[C@@H]1O[C@@H](O[C@H]2[C@H](O[C@H]3[C@H](O[C@H]4CC[C@]5(C)[C@H]6CC=C7[C@@H]8CC(C)(C)CC[C@]8(C(=O)O)CC[C@@]7(C)[C@]6(C)CC[C@H]5C4(C)C)O[C@H](C(=O)O)[C@@H](O)[C@@H]3O)O[C@H](CO)[C@@H](O)[C@@H]2O)[C@H](O)[C@H](O)[C@H]1O		56.8%	
CC1(C)CC[C@]2(C(=O)O)CC[C@]3(C)C(=CC[C@@H]4[C@@]5(C)CC[C@H](O)[C@@](C)(CO)[C@@H]5CC[C@]43C)[C@@H]2C1 [HEDERAGENIN]		62.4%	
C[C@@H]1O[C@@H](O[C@H]2[C@H](O[C@H]3[C@H](O[C@H]4CC[C@@]5(C)[C@@H](CC[C@]6(C)[C@@H]5CC=C5[C@@H]7CC(C)(C)C[C@@H](O)[C@]7(C)CC[C@]56C)[C@@]4(C)CO)O[C@H](C(=O)O)[C@@H](O)[C@@H]3O)O[C@H](CO)[C@H](O)[C@@H]2O)[C@H](O)[C@H](O)[C@H]1O [SOYASAPONIN I]	0%		
CCCCOC(=O)[C@H]1O[C@@H](O[C@H]2CC[C@]3(C)[C@H]4CC=C5[C@@H]6CC(C)(C)CC[C@]6(C(=O)O[C@@H]6O[C@H](CO)[C@@H](O)[C@H](O)[C@H]6O[C@@H]6OC[C@@H](O)[C@H](O)[C@H]6O)CC[C@@]5(C)[C@]4(C)CC[C@H]3C2(C)C)[C@H](O[C@@H]2O[C@H](CO)[C@@H](O)[C@H](O)[C@H]2O[C@@H]2O[C@@H](C)[C@H](O)[C@@H](O)[C@H]2O)[C@@H](O)[C@@H]1O		54.7%	
C[C@@H]1O[C@@H](O[C@H]2[C@H](O[C@H]3[C@H](O[C@H]4CC[C@@]5(C)[C@@H](CC[C@]6(C)[C@@H]5CC=C5[C@@H]7CC(C)(C)C[C@@H](O)[C@]7(C)CC[C@]56C)[C@@]4(C)CO)O[C@H](C(=O)O)[C@@H](O)[C@@H]3O)OC[C@@H](O)[C@@H]2O)[C@H](O)[C@H](O)[C@H]1O	0%		
C[C@@H]1O[C@@H](O[C@H]2[C@H](O[C@H]3[C@H](O[C@H]4CC[C@]5(C)[C@H]6CC=C7[C@@H]8CC(C)(C)CC[C@]8(C(=O)O[C@@H]8O[C@H](CO)[C@@H](O)[C@H](O)[C@H]8O)CC[C@@]7(C)[C@]6(C)CC[C@H]5C4(C)C)O[C@H](C(=O)O)[C@@H](O)[C@@H]3O)O[C@H](CO)[C@@H](O)[C@@H]2O)[C@H](O)[C@H](O)[C@H]1O		87.3%	
C[C@@H]1O[C@@H](O[C@H]2[C@H](O[C@H]3[C@H](O[C@H]4CC[C@@]5(C)[C@@H](CC[C@]6(C)[C@@H]5CC=C5[C@@H]7CC(C)(C)CC(=O)[C@]7(C)CC[C@]56C)[C@@]4(C)CO)O[C@H](C(=O)O)[C@@H](O)[C@@H]3O)O[C@H](CO)[C@H](O)[C@@H]2O)[C@H](O)[C@H](O)[C@H]1O	0%		
C[C@@H]1O[C@@H](O[C@H]2[C@H](O[C@H]3[C@H](O[C@H]4CC[C@@]5(C)[C@@H](CC[C@]6(C)[C@@H]5CC=C5[C@@H]7CC(C)(C)[C@H](O[C@@H]8O[C@H](CO)[C@@H](O)[C@H](O)[C@H]8O)C[C@]7(C)CC[C@]56C)[C@@]4(C)CO)O[C@H](C(=O)O)[C@@H](O)[C@@H]3O)OC[C@@H](O)[C@@H]2O)[C@H](O)[C@H](O)[C@H]1O	0%		
COC(=O)c1cc(OC)c2c(c1-c1c(CO)cc(OC)c3c1OCO3)OCO2 [BICYCLOL]		26.2%	
CCOC(=O)[C@H]1O[C@@H](O[C@H]2CC[C@]3(C)[C@H]4CC=C5[C@@H]6CC(C)(C)CC[C@]6(C(=O)O)CC[C@@]5(C)[C@]4(C)CC[C@H]3C2(C)C)[C@H](O[C@@H]2O[C@H](CO)[C@@H](O)[C@H](O)[C@H]2O[C@@H]2OC[C@@H](O)[C@H](O)[C@H]2O)[C@@H](O)[C@@H]1O		44.8%	
C=C(C)[C@@H]1CC[C@]2(C(=O)O[C@@H]3O[C@H](C(=O)OCC)[C@@H](O)[C@H](O)[C@H]3O[C@@H]3OC[C@@H](O)[C@H](O)[C@H]3O)CC[C@]3(C)[C@H](CC[C@@H]4[C@@]5(C)CC[C@H](O)C(C)(C)[C@@H]5CC[C@]43C)[C@@H]12		48.3%	
C=C(C)[C@@H]1CC[C@]2(C(=O)O)CC[C@]3(C)[C@H](CC[C@@H]4[C@@]5(C)CC[C@H](O[C@@H]6O[C@H](C(=O)OCC)[C@@H](O)[C@H](O)[C@H]6O[C@@H]6OC[C@@H](O)[C@H](O)[C@H]6O)C(C)(C)[C@@H]5CC[C@]43C)[C@@H]12		32.8%	
C[C@@H]1O[C@@H](O[C@H]2[C@H](O[C@H]3[C@H](O[C@H]4CC[C@@]5(C)[C@@H](CC[C@]6(C)[C@@H]5CC=C5[C@@H]7CC(C)(C)C[C@@H](O[C@@H]8O[C@@H](C)[C@H](O)[C@@H](O)[C@H]8O)[C@]7(C)CC[C@]56C)[C@@]4(C)CO)O[C@H](C(=O)O)[C@@H](O)[C@@H]3O)O[C@H](CO)[C@H](O)[C@@H]2O)[C@H](O)[C@H](O)[C@H]1O	0%		
CCOC(=O)[C@H]1O[C@@H](O[C@H]2CC[C@]3(C)[C@H]4CC=C5[C@@H]6CC(C)(C)CC[C@]6(C(=O)O[C@@H]6O[C@H](CO)[C@@H](O)[C@H](O)[C@H]6O[C@@H]6O[C@H](COC(C)=O)[C@@H](O)[C@H](O)[C@H]6O)CC[C@@]5(C)[C@]4(C)CC[C@H]3C2(C)C)[C@H](O[C@@H]2O[C@H](CO)[C@@H](O)[C@H](O)[C@H]2O[C@@H]2O[C@@H](C)[C@H](O)[C@@H](O)[C@H]2O)[C@@H](O)[C@@H]1O		75.7%	
C[C@@H]1O[C@@H](O[C@H]2[C@H](O[C@H]3[C@H](O[C@H]4CC[C@@]5(C)[C@@H](CC[C@]6(C)[C@@H]5CC=C5[C@@H]7C[C@@](C)(CO[C@@H]8O[C@H](CO)[C@@H](O)[C@H](O)[C@H]8O)C[C@@H](O)[C@]7(C)CC[C@]56C)[C@@]4(C)CO)O[C@H](C(=O)O)[C@@H](O)[C@@H]3O)O[C@H](CO)[C@H](O)[C@@H]2O)[C@H](O)[C@H](O)[C@H]1O	0%		
CCCCOC(=O)[C@H]1O[C@@H](O[C@H]2CC[C@]3(C)[C@H]4CC=C5[C@@H]6[C@@H](C)[C@H](C)CC[C@]6(C(=O)O[C@@H]6O[C@H](CO)[C@@H](O[C@@H]7O[C@@H](C)[C@H](O)[C@@H](O)[C@H]7O)[C@H](O)[C@H]6O)CC[C@@]5(C)[C@]4(C)CC[C@H]3C2(C)C)[C@H](O[C@@H]2O[C@H](CO)[C@@H](O)[C@H](O)[C@H]2O[C@@H]2O[C@@H](C)[C@H](O)[C@@H](O)[C@H]2O)[C@@H](O)[C@@H]1O		32.2%	
CCOC(=O)[C@H]1O[C@@H](O[C@H]2CC[C@]3(C)[C@H]4CC=C5[C@@H]6CC(C)(C)CC[C@]6(C(=O)O[C@@H]6O[C@H](CO)[C@@H](O[C@@H]7O[C@@H](C)[C@H](O)[C@@H](O)[C@H]7O)[C@H](O)[C@H]6O)CC[C@@]5(C)[C@]4(C)CC[C@H]3C2(C)C)[C@H](O[C@@H]2O[C@H](CO)[C@@H](O)[C@H](O)[C@H]2O[C@@H]2O[C@@H](C)[C@H](O)[C@@H](O)[C@H]2O)[C@@H](O)[C@@H]1O		81.4%	
C[C@@H]1O[C@@H](O[C@H]2[C@H](O[C@H]3[C@H](O[C@H]4CC[C@@]5(C)[C@@H](CC[C@]6(C)[C@@H]5CC=C5[C@@H]7CC(C)(C)[C@H](O[C@@H]8O[C@H](CO)[C@@H](O)[C@H](O)[C@H]8O)C[C@]7(C)CC[C@]56C)[C@@]4(C)CO)O[C@H](C(=O)O)[C@@H](O)[C@@H]3O)O[C@H](CO)[C@H](O)[C@@H]2O)[C@H](O)[C@H](O)[C@H]1O	0%		
CC1(C)C[C@H]2C3=CC[C@@H]4[C@@]5(C)C=CC(=O)C(C)(C)[C@@H]5CC[C@@]4(C)[C@]3(C)CC[C@@]2(C(=O)O)C[C@@H]1O		76.8%	
